Assay results from patent publication US20250144067A1, “PERSONALIZED STARVATION THERAPY FOR CANCER” (Faeth Therapeutics, Inc., priority 2021, published 2025).
Structures can show the parent of a compound that is named as a salt. Where two headings read alike, the source gives them in different places.

Columns and labels:
[1] = tested on: NCI-H292 lung cancer cells; assay: FDA drug screening, complete media vs cholesterol-free media with simvastatin (TABLE 2); format: cell-based, human
[2] = tested on: NCI-H292 lung cancer cells; assay: FDA drug screening, complete media vs cholesterol-free media without statin (TABLE 1); format: cell-based, human
[3] = NCI-H292 cells, FDA drug library screen, cholesterol-free media with simvastatin 0.04 μM
[4] = NCI-H292 cells, FDA drug library screen, complete media
[5] = complete media minus cholesterol-free media + simvastatin, […]
[6] = Complete minus Cholesterol-free, […]
[7] = NCI-H292 cells in cholesterol-free media without statin
[8] = NCI-H292 cells in complete media
[9] = NCI-H292 cells, cholesterol-free media without statin
[10] = complete vs cholesterol-free media, […]
[11] = NCI-H292 cells, drug in cholesterol-free media with simvastatin 0.04 μM
[12] = NCI-H292 cells, drug in complete media
[13] = complete media vs cholesterol-free media + simvastatin (0.04 μM), >0 enhanced anti-cancer activity, about 0 neutral, <0 antagonist
[14] = Complete minus Cholesterol-free, greater than 0 enhanced anti-cancer activity, about 0 neutral, below 0 antagonist
[15] = NCI-H292 cells, FDA drug library screen, cholesterol-free media without statin
[16] = Complete minus Cholesterol-free, >0 enhanced anti-cancer activity, about 0 neutral, <0 antagonist
[17] = NCI-H292 cells, cholesterol-free media with simvastatin 0.04 μM, FDA drug library screen (TABLE 2)
[18] = NCI-H292 cells, complete media, FDA drug library screen (TABLE 2)
[19] = complete media minus cholesterol-free media + simvastatin (0.04 μM), >0 enhanced anti-cancer activity, about 0 neutral, <0 antagonist
[20] = NCI-H292 cells, cholesterol-free media without statin, FDA drug library screen
[21] = NCI-H292 cells, complete media, FDA drug library screen
[22] = complete vs cholesterol-free media, >0 enhanced anti-cancer activity, about 0 neutral, <0 antagonist
[23] = Complete minus Cholesterol-free, greater than 0 enhanced anti-cancer activity, about 0 neutral, below 0 antagonists
[24] = complete media minus cholesterol-free media + simvastatin, >0 enhanced anti-cancer activity, about 0 neutral, <0 antagonist
[25] = complete vs cholesterol-free media, greater than 0 enhanced anti-cancer activity, about 0 neutral, below 0 antagonists
[26] = NCI-H292 cells, FDA library drug in cholesterol-free media with simvastatin 0.04 μM
[27] = NCI-H292 cells, FDA library drug in complete media
[28] = NCI-H292 cells, cholesterol-free media with simvastatin 0.04 μM, cell growth value in FDA drug screen
[29] = NCI-H292 cells, complete media, cell growth value in FDA drug screen

`CCOC(=O)c1cncn1[C@H](C)c1ccccc1` [Etomidate (hydrochloride)] was tested, and the “Cholesterol-free media + simvastatin (0.04 μM)” value [1, 3] was 0.8714, the “Complete Media” value [1, 4] was 1.097 and the Difference [1, 5] was 0.23. It also gave a Difference [2, 6] of −0.60, a Cholesterol-free [2, 7] of 1.469 and a Complete [2, 8] of 0.8733.
`CCOC(=O)c1cncn1[C@H](C)c1ccccc1` [Etomidate] was tested, and the “Cholesterol-free media + simvastatin (0.04 μM)” value [1, 3] was 0.9001, the “Complete Media” value [1, 4] was 1.134 and the Difference [1, 5] was 0.23. The Cholesterol-free [2, 9] was 1.122, the Complete ([2]; NCI-H292 cells, complete media) was 0.7993 and the Difference [2, 10] was −0.32.
With `COc1cc([C@@H]2c3cc4c(cc3[C@@H](O[C@@H]3O[C@@H]5CO[C@@H](C)O[C@H]5[C@H](O)[C@H]3O)[C@H]3COC(=O)[C@H]23)OCO4)cc(OC)c1OP(=O)(O)O` [Etoposide phosphate] the “Cholesterol-free media + simvastatin (0.04 μM)” value [1, 11] was 0.9468, the “Complete Media” value [1, 12] was 0.7461 and the Difference [1, 13] was −0.20. For the same compound, the Difference [2, 14] was −0.10, the Cholesterol-free [2, 15] was 0.7876 and the Complete [2, 4] was 0.6917.
`COc1cc([C@@H]2c3cc4c(cc3[C@@H](O[C@@H]3O[C@@H]5CO[C@@H](C)O[C@H]5[C@H](O)[C@H]3O)[C@H]3COC(=O)[C@H]23)OCO4)cc(OC)c1O` [Etoposide] was tested, and the “Cholesterol-free media + simvastatin (0.04 μM)” value [1, 11] was 0.718, the “Complete Media” value [1, 12] was 0.5014 and the Difference [1, 13] was −0.22. For the same compound, the Difference [2, 16] was −0.29, the Cholesterol-free [2, 9] was 0.7069 and the Complete ([2]; NCI-H292 cells, complete media) was 0.4154.
For `Cc1ccc(-c2ncc(Cl)cc2-c2ccc(S(C)(=O)=O)cc2)cn1` [Etoricoxib], the “Cholesterol-free media + simvastatin (0.04 μM)” value [1, 17] was 1.501, the “Complete Media” value [1, 18] was 1.49 and the Difference [1, 19] was −0.01. It also gave a Cholesterol-free [2, 20] of 1.045, a Complete [2, 21] of 1.321 and a Difference [2, 22] of 0.28.
In the case of `Cc1cc(C#N)cc(C)c1Oc1nc(Nc2ccc(C#N)cc2)nc(N)c1Br` [Etravirine], the “Cholesterol-free media + simvastatin (0.04 μM)” value [1, 17] is reported as 0.8346, the “Complete Media” value [1, 18] is reported as 0.8071 and the Difference [1, 19] is reported as −0.03. For the same compound, the Difference [2, 23] was −0.49, the Cholesterol-free [2, 7] was 1.424 and the Complete [2, 8] was 0.9362.
`CCOC(=O)/C=C(C)/C=C/C=C(C)/C=C/c1c(C)cc(OC)c(C)c1C` [Etretinate] was tested, and the “Cholesterol-free media + simvastatin (0.04 μM)” value [1, 3] was 0.824, the “Complete Media” value [1, 4] was 1.055 and the Difference [1, 5] was 0.23. The Difference [2, 6] was −0.71, the Cholesterol-free [2, 7] was 1.459 and the Complete [2, 8] was 0.7469.
`COC(=O)c1cccc(CCN(C)CCC[C@@](C#N)(c2ccc(OC)c(OC)c2)C(C)C)c1` [Etripamil] was tested, and the “Cholesterol-free media + simvastatin (0.04 μM)” value ([1]; NCI-H292 cells, cholesterol-free media with simvastatin 0.04 μM, […]) was 0.8109, the “Complete Media” value ([1]; NCI-H292 cells, complete media, […]) was 0.8724 and the Difference [1, 5] was 0.06. For the same compound, the Cholesterol-free [2, 9] was 1.343, the Complete ([2]; NCI-H292 cells, complete media) was 0.9721 and the Difference [2, 10] was −0.37.
`C=CCc1ccc(O)c(OC)c1` [Eugenol] was tested, and the “Cholesterol-free media + simvastatin (0.04 μM)” value [1, 3] was 0.8347, the “Complete Media” value [1, 4] was 1.009 and the Difference [1, 24] was 0.17. For the same compound, the Cholesterol-free [2, 9] was 1.418, the Complete ([2]; NCI-H292 cells, complete media) was 1.048 and the Difference [2, 25] was −0.37.
In the case of `Cc1cc(-c2ccc(/N=N/c3ccc4c(S(=O)(=O)O)cc(S(=O)(=O)O)c(N)c4c3O)c(C)c2)ccc1/N=N/c1ccc2c(S(=O)(=O)O)cc(S(=O)(=O)O)c(N)c2c1O` [Evans Blue], the “Cholesterol-free media + simvastatin (0.04 μM)” value [1, 11] is reported as 1.142, the “Complete Media” value [1, 12] is reported as 0.9534 and the Difference [1, 13] is reported as −0.19. It also gave a Difference [2, 16] of −0.05, a Cholesterol-free [2, 20] of 1.165 and a Complete [2, 21] of 1.11.
For `CO[C@H]1C[C@@H]2CC[C@@H](C)[C@@](O)(O2)C(=O)C(=O)N2CCCC[C@H]2C(=O)O[C@H]([C@H](C)C[C@@H]2CC[C@@H](OCCO)[C@H](OC)C2)CC(=O)[C@H](C)/C=C(\C)[C@@H](O)[C@@H](OC)C(=O)[C@H](C)C[C@H](C)/C=C/C=C/C=C/1C` [Everolimus], the “Cholesterol-free media + simvastatin (0.04 μM)” value [1, 17] was 0.3946, the “Complete Media” value [1, 18] was 0.373 and the Difference [1, 19] was −0.02. It also gave a Difference [2, 16] of −0.23, a Cholesterol-free [2, 9] of 0.8236 and a Complete ([2]; NCI-H292 cells, complete media) of 0.5968.
With `C=C1C[C@@H]2[C@H](CC[C@]3(C)C(=O)CC[C@@H]23)[C@@]2(C)C=CC(=O)C=C12` [Exemestane] the “Cholesterol-free media + simvastatin (0.04 μM)” value [1, 26] was 1.215, the “Complete Media” value [1, 27] was 0.9053 and the Difference [1, 13] was −0.31. For the same compound, the Difference [2, 16] was −0.01, the Cholesterol-free [2, 20] was 1.056 and the Complete [2, 21] was 1.048.
`O=C1[C@H](CC[C@H](O)c2ccc(F)cc2)[C@@H](c2ccc(O)cc2)N1c1ccc(F)cc1` [Ezetimibe] was tested, and the “Cholesterol-free media + simvastatin (0.04 μM)” value [1, 28] was 1.247, the “Complete Media” value [1, 29] was 1.268 and the Difference [1, 24] was 0.02. For the same compound, the Difference [2, 23] was −0.66, the Cholesterol-free [2, 7] was 1.871 and the Complete [2, 8] was 1.209.
In the case of `CCOc1ccc2nc(SCCN3CCOCC3)[nH]c2c1` [Fabomotizole (hydrochloride)], the “Cholesterol-free media + simvastatin (0.04 μM)” value [1, 11] is reported as 1.167, the “Complete Media” value [1, 12] is reported as 0.9459 and the Difference [1, 13] is reported as −0.22. For the same compound, the Cholesterol-free [2, 9] was 1.463, the Complete ([2]; NCI-H292 cells, complete media) was 1.068 and the Difference [2, 25] was −0.39.
In the case of `N#Cc1ccc(C2CCCc3cncn32)cc1` (stereo not drawn) [Fadrozole hydrochloride], the “Cholesterol-free media + simvastatin (0.04 μM)” value [1] is reported as 0.9854, the “Complete Media” value [1] is reported as 0.9477 and the Difference [1] is reported as −0.04. The Cholesterol-free [2] was 1.643, the Complete [2] was 1.101 and the Difference [2] was −0.54.
With `N#Cc1ccc(C2CCCc3cncn32)cc1` (stereo not drawn) [Fadrozole] the “Cholesterol-free media + simvastatin (0.04 μM)” value [1] was 1.426, the “Complete Media” value [1] was 1.038 and the Difference [1] was −0.39. For the same compound, the Cholesterol-free [2] was 0.5349, the Complete [2] was 1.016 and the Difference [2] was 0.48.
`CC(=O)OCC(CCn1cnc2cnc(N)nc21)COC(C)=O` [Famciclovir] was tested, and the “Cholesterol-free media + simvastatin (0.04 μM)” value [1, 26] was 1.597, the “Complete Media” value [1, 27] was 1.161 and the Difference [1, 13] was −0.44. The Difference [2, 16] was −0.27, the Cholesterol-free [2, 9] was 1.022 and the Complete ([2]; NCI-H292 cells, complete media) was 0.7509.
In the case of `NC(N)=Nc1nc(CSCCC(N)=NS(N)(=O)=O)cs1` [Famotidine], the “Cholesterol-free media + simvastatin (0.04 μM)” value [1, 26] is reported as 1.666, the “Complete Media” value [1, 27] is reported as 1.298 and the Difference [1, 13] is reported as −0.37. It also gave a Difference [2, 14] of −0.07, a Cholesterol-free [2, 15] of 1.016 and a Complete [2, 4] of 0.9424.
With `Cc1oc(=O)oc1COC(=O)C1=C([C@H]2CCCO2)S[C@@H]2[C@@H]([C@@H](C)O)C(=O)N12` [Faropenem daloxate] the “Cholesterol-free media + simvastatin (0.04 μM)” value [1, 3] was 1.071, the “Complete Media” value [1, 4] was 0.9664 and the Difference [1, 13] was −0.10. It also gave a Difference [2, 23] of −0.54, a Cholesterol-free [2, 7] of 1.449 and a Complete [2, 8] of 0.9042.
For `C[C@@H](O)[C@H]1C(=O)N2C(C(=O)O)=C([C@H]3CCCO3)S[C@H]12` [Faropenem sodium], the “Cholesterol-free media + simvastatin (0.04 μM)” value [1, 28] was 0.9421, the “Complete Media” value [1, 29] was 0.984 and the Difference [1, 24] was 0.04. For the same compound, the Difference [2, 16] was −0.02, the Cholesterol-free [2, 20] was 0.8692 and the Complete [2, 21] was 0.8522.
`O=S(=O)(c1cccc2cnccc12)N1CCCNCC1` [Fasudil (Hydrochloride)] was tested, and the “Cholesterol-free media + simvastatin (0.04 μM)” value [1, 3] was 0.9921, the “Complete Media” value [1, 4] was 1.233 and the Difference [1, 24] was 0.24. For the same compound, the Difference [2, 14] was −0.12, the Cholesterol-free [2, 15] was 1.121 and the Complete [2, 4] was 1.
For `NC(=O)c1nc(F)c[nH]c1=O` [Favipiravir], the “Cholesterol-free media + simvastatin (0.04 μM)” value [1, 11] was 1.347, the “Complete Media” value [1, 12] was 1.105 and the Difference [1, 13] was −0.24. For the same compound, the Difference [2, 16] was −0.06, the Cholesterol-free [2, 20] was 1.059 and the Complete [2, 21] was 0.9966.
In the case of `Cc1nc(-c2ccc(OCC(C)C)c(C#N)c2)sc1C(=O)O` [Febuxostat], the “Cholesterol-free media + simvastatin (0.04 μM)” value [1, 3] is reported as 1.155, the “Complete Media” value [1, 4] is reported as 1.036 and the Difference [1, 13] is reported as −0.12. It also gave a Cholesterol-free [2, 20] of 0.955, a Complete [2, 21] of 1.415 and a Difference [2, 22] of 0.46.
